Paper PMC5215691 (2017)

Columns and labels:
[1] = system: KBA 2 (DNA, aptamer) ATGCGGATCCCGCGCGACCAACGGAAGCGCGCCACCCCATCGGCGGCGCGAAGCTTGCGC; experiment: ELONA (biotin-aptamer, streptavidin-HRP); conditions: for binding: immobilised compound, 1 μM aptamer
[2] = system: KBA 3-1 (DNA, aptamer) CGGAAGCGCGCCACCCCATCGGCGGGCGCGAAGCTTGCG; experiment: ELONA (biotin-aptamer, streptavidin-HRP); conditions: for binding: immobilised compound, 1 μM aptamer
[3] = system: FAM-labeled KBA 3-1 (DNA, aptamer) CGGAAGCGCGCCACCCCATCGGCGGGCGCGAAGCTTGCG; experiment: RGO fluorescence quenching/recovery; conditions: 1X PBS pH 8.5, room temperature, 100 nM aptamer, 0.1 mg/mL RGO
[4] = system: KBA 1-2 (DNA, aptamer) CGCGCCGACGTCAGAGAGGCGCG; experiment: ELONA (biotin-aptamer, streptavidin-HRP); conditions: not given; 1X PBS/PBST (concentrations not given); immobilised compound (amide bond on NOS plate); apparent
[5] = system: KBA 2-1 (DNA, aptamer) CGGAAGCGCGCCACCCCATCGGCGGCGCGAAGCTTGCG; experiment: ELONA (biotin-aptamer, streptavidin-HRP); conditions: not given; 1X PBS/PBST (concentrations not given); immobilised compound (amide bond on NOS plate); apparent
[6] = system: KBA 3-2 (DNA, aptamer) CGCCACCCCATCGGCGGGCG; experiment: ELONA (biotin-aptamer, streptavidin-HRP); conditions: not given; 1X PBS/PBST (concentrations not given); immobilised compound (amide bond on NOS plate); apparent
[7] = system: KBA 3 (DNA, aptamer) ATGCGGATCCCGCGCACCAACGGAAGCGCGCCACCCCATCGGCGGGCGCGAAGCTTGCGC; experiment: ELONA (biotin-aptamer, streptavidin-HRP); conditions: not given; 1X PBS/PBST (concentrations not given); immobilised compound (amide bond on NOS plate); apparent
[8] = system: KBA 2-2 (DNA, aptamer) CGCCACCCCATCGGCGGCG; experiment: ELONA (biotin-aptamer, streptavidin-HRP); conditions: not given; 1X PBS/PBST (concentrations not given); immobilised compound (amide bond on NOS plate); apparent
[9] = system: KBA 1-1 (DNA, aptamer) ATGCGGATCCCGCGCCGACGTCAGAGAGGCGCGCTGGTTTGCAC; experiment: ELONA (biotin-aptamer, streptavidin-HRP); conditions: not given; 1X PBS/PBST (concentrations not given); immobilised compound (amide bond on NOS plate); apparent
[10] = system: KBA 1 (DNA, aptamer) ATGCGGATCCCGCGCCGACGTCAGAGAGGCGCGCTGGTTTGCACCGCGCGAAGCTTGCGC; experiment: ELONA (biotin-aptamer, streptavidin-HRP); conditions: not given; 1X PBS/PBST (concentrations not given); immobilised compound (amide bond on NOS plate); apparent
[11] = not given, 1X PBS/PBST (concentrations not given), immobilised compound (amide bond on NOS plate), apparent

Row | Structure (SMILES) | binding [1] | binding [2] | binding ([3]; 1 μM antibiotic) | further results
1 | CN[C@@H]1[C@H](O[C@H]2[C@H](O[C@H]3[C@H](O)[C@@H](O)[C@H](N=C(N)N)[C@@H](O)[C@@H]3N=C(N)N)O[C@@H](C)[C@]2(O)CO)O[C@@H](CO)[C@H](O)[C@H]1O | weak | weak | weak | 
2 | CC1(C)S[C@@H]2[C@H](NC(=O)[C@H](N)c3ccccc3)C(=O)N2[C@H]1C(=O)O | weak | weak |  | binding ([3]; 1 μM ampicillin): no
3 | CN(C)[C@@H]1C(=O)C(C(N)=O)=C(O)[C@@]2(O)C(=O)C3=C(O)c4c(O)cccc4[C@@](C)(O)[C@H]3C[C@@H]12 | weak | weak | weak | 
4 | CN[C@@H]1[C@H](O[C@H]2[C@H](O[C@H]3[C@H](O)[C@@H](O)[C@H](N=C(N)N)[C@@H](O)[C@@H]3N=C(N)N)O[C@@H](C)[C@]2(O)C=O)O[C@@H](CO)[C@H](O)[C@H]1O | weak | weak | weak | 
5 | NC[C@H]1O[C@H](O[C@H]2[C@H](O)[C@@H](O[C@H]3O[C@H](CO)[C@@H](O)[C@H](N)[C@H]3O)[C@H](N)C[C@@H]2N)[C@H](O)[C@@H](O)[C@@H]1O |  |  |  | Kd^app [4]: 669 ± 10.7 nM; Kd^app [5]: 182 ± 57.2 nM; Kd^app [6]: 239 ± 52.5 nM; Kd^app [1, 11]: 34.7 ± 35.6 nM; Kd^app [7]: 341 ± 12.8 nM; Kd^app [8]: 564 ± 92.5 nM; Kd^app [9]: 268 ± 26.7 nM; Kd^app [2, 11]: 92.3 ± 29.1 nM; Kd^app [10]: 268 ± 20.8 nM; binding ([3]; 1 pM to 1 μM kanamycin): yes
